Assay results from the NIST ThermoML archive (doi:10.1021/je900285w).

Key:
[1] = Crystal; DTA
[2] = Molar enthalpy of transition or fusion; details: Crystal; DSC
[3] = molar heat capacity at constant pressure; details: 101.33 kPa, Crystal

OC[C@@H](O)[C@@H](O)[C@H](O)[C@H](O)CO [D-mannitol]
Details | Molar enthalpy of transition or fusion [kcal/mol] | Normal melting temperature [°C]
[1] | – | 164.10
[2] | 13.1 | –

[3]
Details | molar heat capacity at constant pressure [J/K/mol]
80 K | 70.46
80.42 K | 71.86
84.12 K | 75.82
85 K | 76.73
87.06 K | 79
90 K | 82.37
90.04 K | 82.17
93.09 K | 85.24
95 K | 87.51
96.04 K | 88
99.05 K | 90.89
100 K | 92.23
102.11 K | 93.72
105 K | 96.64
105.11 K | 96.44
108.05 K | 98.92
110 K | 100.8
111.06 K | 101.4
114.14 K | 104
115 K | 104.8
117.16 K | 106.5
120 K | 108.7
120.11 K | 109
123.13 K | 111.5
125 K | 112.5
126.22 K | 113.8
129.26 K | 116.1
130 K | 116.2
132.27 K | 118.9
135 K | 120
135.24 K | 120.9
138.18 K | 123
140 K | 123.8
141.2 K | 125.4
144.28 K | 127.8
145 K | 127.7
147.31 K | 129.9
150 K | 131.6
150.31 K | 132.2
153.28 K | 134.4
155 K | 135.6
156.23 K | 136.7
159.25 K | 138.8
160 K | 139.7
162.37 K | 141.7
165 K | 143.9
165.49 K | 143.2
168.58 K | 146.4
170 K | 148.2
171.61 K | 149.2
174.59 K | 150.8
175 K | 152.5
177.6 K | 152.9
180 K | 156.9
180.59 K | 156.6
183.61 K | 159.2
185 K | 161.4
186.66 K | 162.1
189.7 K | 165
190 K | 166
192.75 K | 168.2
195 K | 170.6
195.81 K | 170.5
198.93 K | 173.9
200 K | 175.2
202.13 K | 176.6
205 K | 179.9
205.3 K | 180.9
208.4 K | 184.3
210 K | 184.6
211.46 K | 187.3
214.49 K | 189.7
215 K | 189.3
217.58 K | 192.1
220 K | 193.9
220.74 K | 195.4
223.88 K | 198.8
225 K | 198.6
226.99 K | 202.7
230 K | 203.2
230.03 K | 204.2
233.09 K | 207.6
235 K | 207.8
236.15 K | 210.5
239.22 K | 213.4
242.24 K | 215.7
245.33 K | 217.7
248.42 K | 220
251.42 K | 221.4
254.48 K | 223.2
257.61 K | 226.2
260.73 K | 228
263.83 K | 230.7
266.98 K | 233.6
270.15 K | 236.1
273.22 K | 239.5
276.28 K | 242.1
279.35 K | 245.4
282.41 K | 248.6
285.44 K | 251.6
288.45 K | 253.1
291.43 K | 256
294.39 K | 259
297.49 K | 260.6
300.61 K | 262.6
303.63 K | 264.9
306.66 K | 266.7
309.69 K | 268.4
312.78 K | 270.6
315.92 K | 272.9
319.06 K | 275.3
322.19 K | 277.9
325.3 K | 280.3
328.4 K | 282.6
331.49 K | 284.8
334.56 K | 286.1
337.63 K | 289
340.68 K | 291.4
343.78 K | 293.3
346.92 K | 295.5
350.05 K | 297.6
353.16 K | 299.6
356.26 K | 301.3
359.31 K | 303.7
362.51 K | 305.8
365.68 K | 308.4
368.86 K | 310.2
372.04 K | 311.9
375.21 K | 314
378.35 K | 316.7
381.44 K | 319
384.52 K | 320.9
387.64 K | 322.7
